Laboratory results: BigSolDB 2.1

## COC(=O)[C@@H](N)CC(C)C.Cl
In 1,4-dioxane, 288.15 K
  solubility (mole fraction): 0.0539
In 1,4-dioxane, 293.15 K
  solubility (mole fraction): 0.0579
In 1,4-dioxane, 298.15 K
  solubility (mole fraction): 0.0621
In 1,4-dioxane, 303.15 K
  solubility (mole fraction): 0.0715
In 1,4-dioxane, 308.15 K
  solubility (mole fraction): 0.0799
In 1,4-dioxane, 313.15 K
  solubility (mole fraction): 0.0918
In 1,4-dioxane, 318.15 K
  solubility (mole fraction): 0.11
In 1,4-dioxane, 323.15 K
  solubility (mole fraction): 0.127
In 1,4-dioxane, 328.15 K
  solubility (mole fraction): 0.158
In 2-butanone, 283.15 K
  solubility (mole fraction): 0.00114
In 2-butanone, 288.15 K
  solubility (mole fraction): 0.00125
In 2-butanone, 293.15 K
  solubility (mole fraction): 0.00141
In 2-butanone, 298.15 K
  solubility (mole fraction): 0.00158
In 2-butanone, 303.15 K
  solubility (mole fraction): 0.00186
In 2-butanone, 308.15 K
  solubility (mole fraction): 0.00238
In 2-butanone, 313.15 K
  solubility (mole fraction): 0.00297
In 2-butanone, 318.15 K
  solubility (mole fraction): 0.00388
In 2-butanone, 323.15 K
  solubility (mole fraction): 0.00524
In acetone, 283.15 K
  solubility (mole fraction): 0.00343
In acetone, 288.15 K
  solubility (mole fraction): 0.00389
In acetone, 293.15 K
  solubility (mole fraction): 0.00451
In acetone, 298.15 K
  solubility (mole fraction): 0.00562
In acetone, 303.15 K
  solubility (mole fraction): 0.00661
In acetone, 308.15 K
  solubility (mole fraction): 0.00806
In acetone, 313.15 K
  solubility (mole fraction): 0.01
In acetone, 318.15 K
  solubility (mole fraction): 0.0129
In acetone, 323.15 K
  solubility (mole fraction): 0.0172
In acetonitrile, 283.15 K
  solubility (mole fraction): 0.00109
In acetonitrile, 288.15 K
  solubility (mole fraction): 0.00154
In acetonitrile, 293.15 K
  solubility (mole fraction): 0.00205
In acetonitrile, 298.15 K
  solubility (mole fraction): 0.00313
In acetonitrile, 303.15 K
  solubility (mole fraction): 0.00401
In acetonitrile, 308.15 K
  solubility (mole fraction): 0.0051
In acetonitrile, 313.15 K
  solubility (mole fraction): 0.00776
In acetonitrile, 318.15 K
  solubility (mole fraction): 0.011
In acetonitrile, 323.15 K
  solubility (mole fraction): 0.0162
In dimethyl carbonate, 283.15 K
  solubility (mole fraction): 0.000287
In dimethyl carbonate, 288.15 K
  solubility (mole fraction): 0.000319
In dimethyl carbonate, 293.15 K
  solubility (mole fraction): 0.00038
In dimethyl carbonate, 298.15 K
  solubility (mole fraction): 0.000478
In dimethyl carbonate, 303.15 K
  solubility (mole fraction): 0.000629
In dimethyl carbonate, 308.15 K
  solubility (mole fraction): 0.000924
In dimethyl carbonate, 313.15 K
  solubility (mole fraction): 0.00127
In dimethyl carbonate, 318.15 K
  solubility (mole fraction): 0.00167
In dimethyl carbonate, 323.15 K
  solubility (mole fraction): 0.00213
In ethyl acetate, 283.15 K
  solubility (mole fraction): 0.000226
In ethyl acetate, 288.15 K
  solubility (mole fraction): 0.000237
In ethyl acetate, 293.15 K
  solubility (mole fraction): 0.000277
In ethyl acetate, 298.15 K
  solubility (mole fraction): 0.000342
In ethyl acetate, 303.15 K
  solubility (mole fraction): 0.000421
In ethyl acetate, 308.15 K
  solubility (mole fraction): 0.000593
In ethyl acetate, 313.15 K
  solubility (mole fraction): 0.000729
In ethyl acetate, 318.15 K
  solubility (mole fraction): 0.000892
In ethyl acetate, 323.15 K
  solubility (mole fraction): 0.00124
In isopropyl acetate, 283.15 K
  solubility (mole fraction): 0.000136
In isopropyl acetate, 288.15 K
  solubility (mole fraction): 0.000152
In isopropyl acetate, 293.15 K
  solubility (mole fraction): 0.000178
In isopropyl acetate, 298.15 K
  solubility (mole fraction): 0.000219
In isopropyl acetate, 303.15 K
  solubility (mole fraction): 0.000246
In isopropyl acetate, 308.15 K
  solubility (mole fraction): 0.00029
In isopropyl acetate, 313.15 K
  solubility (mole fraction): 0.000358
In isopropyl acetate, 318.15 K
  solubility (mole fraction): 0.000429
In isopropyl acetate, 323.15 K
  solubility (mole fraction): 0.000561
In methyl acetate, 283.15 K
  solubility (mole fraction): 0.000388
In methyl acetate, 288.15 K
  solubility (mole fraction): 0.000472
In methyl acetate, 293.15 K
  solubility (mole fraction): 0.000629
In methyl acetate, 298.15 K
  solubility (mole fraction): 0.000834
In methyl acetate, 303.15 K
  solubility (mole fraction): 0.00105
In methyl acetate, 308.15 K
  solubility (mole fraction): 0.00138
In methyl acetate, 313.15 K
  solubility (mole fraction): 0.0019
In methyl acetate, 318.15 K
  solubility (mole fraction): 0.00244
In methyl acetate, 323.15 K
  solubility (mole fraction): 0.00347
In n-butanol, 283.15 K
  solubility (mole fraction): 0.0885
In n-butanol, 288.15 K
  solubility (mole fraction): 0.0916
In n-butanol, 293.15 K
  solubility (mole fraction): 0.0983
In n-butanol, 298.15 K
  solubility (mole fraction): 0.109
In n-butanol, 303.15 K
  solubility (mole fraction): 0.123
In n-butanol, 308.15 K
  solubility (mole fraction): 0.139
In n-butanol, 313.15 K
  solubility (mole fraction): 0.155
In n-butanol, 318.15 K
  solubility (mole fraction): 0.171
In n-butanol, 323.15 K
  solubility (mole fraction): 0.196
In n-hexane, 283.15 K
  solubility (mole fraction): 0.000296
In n-hexane, 288.15 K
  solubility (mole fraction): 0.000331
In n-hexane, 293.15 K
  solubility (mole fraction): 0.000371
In n-hexane, 298.15 K
  solubility (mole fraction): 0.000433
In n-hexane, 303.15 K
  solubility (mole fraction): 0.000505
In n-hexane, 308.15 K
  solubility (mole fraction): 0.00063
In n-hexane, 313.15 K
  solubility (mole fraction): 0.000782
In n-hexane, 318.15 K
  solubility (mole fraction): 0.000983
In n-hexane, 323.15 K
  solubility (mole fraction): 0.0012
In n-pentanol, 283.15 K
  solubility (mole fraction): 0.0571
In n-pentanol, 288.15 K
  solubility (mole fraction): 0.062
In n-pentanol, 293.15 K
  solubility (mole fraction): 0.0696
In n-pentanol, 298.15 K
  solubility (mole fraction): 0.0787
In n-pentanol, 303.15 K
  solubility (mole fraction): 0.0917
In n-pentanol, 308.15 K
  solubility (mole fraction): 0.104
In n-pentanol, 313.15 K
  solubility (mole fraction): 0.121
In n-pentanol, 318.15 K
  solubility (mole fraction): 0.137
In n-pentanol, 323.15 K
  solubility (mole fraction): 0.156
In n-propyl acetate, 283.15 K
  solubility (mole fraction): 0.00123
In n-propyl acetate, 288.15 K
  solubility (mole fraction): 0.00129
In n-propyl acetate, 293.15 K
  solubility (mole fraction): 0.00145
In n-propyl acetate, 298.15 K
  solubility (mole fraction): 0.00189
In n-propyl acetate, 303.15 K
  solubility (mole fraction): 0.00234
In n-propyl acetate, 308.15 K
  solubility (mole fraction): 0.00292
In n-propyl acetate, 313.15 K
  solubility (mole fraction): 0.0036
In n-propyl acetate, 318.15 K
  solubility (mole fraction): 0.00455
In n-propyl acetate, 323.15 K
  solubility (mole fraction): 0.00541
